According to patent US12565680B2, “Cancer neoantigens and their utilities in cancer vaccines and TCR-based cancer immunotherapy” (THE METHODIST HOSPITAL SYSTEM, priority 2018, dated 2026):

Legend:
T-cell clones of 135TIL = experiment: IFN-γ ELISA with tumor-reactive T-cell clones of 135TIL; assay type: cell-based, human
Description: Thus, immunogenic antigens can be generated from various sources or mechanisms [such as alternative ORFs, noncoding regions (3′ and 5′ UTRs, introns, noncoding RNA)]. […] All other tumor-reactive CD4^+ T-cell clones and CD8^+ T-cell clones recognized the mutation-derived neoantigens. […] To identify these two antigens recognized by these two CD4^+ T-cell clones, an Ii-fusion cDNA library derived from 135 mel tumor cells was constructed using experimental procedures. The Ii-fusion cDNA library pools (approximately 100 cDNA clones per pool) were transfected into 293IMDR3/DP4 or 293IMDR4/DP4 cells, followed by co-culturing with CD4^+ T-cell clones (135-1C1 or 135-1E1). After 2×10^5 cDNA clones, positive cDNA library pools that stimulate two T-cell clones, respectively, were identified based on IFN-γ release by ELISA (FIG. 6B). The positive pools were then transformed into Stbl3™ Escherichia coli, and single bacteria colonies were picked for plasmid DNA isolation. The screening assays were repeated in the same APCs transfected with the single cDNA-containing plasmids, and identified three clones that were able to stimulate 135-1C1 T cells, and two clones that reacted with 135-1E1 T cells (FIG. 6C). […] The 135-1E1 T cell-reactive cDNA clones encoded the product translated from an alternative reading frame of CTAG2 (LAGE1b) (FIG. 6C and FIG. 7A). […] LAGE1 is a cancer-testis antigen, with over 80% amino acid sequence identical to NY-ESO-1 protein, which is the most immunogenic tumor antigen identified to date. To define the T cell epitopes, wee generated a series of deletions and truncations of 3′ UTR region of ADIPOR2 gene, and narrowed down T cell epitope to a 26 aa peptide-coding sequence that stimulate 135-1C1 T cell response (FIG. 7D). Using similar approach, T cell epitopes were narrowed down to a 69 aa peptide-coding sequence of the LAGE1b alternative ORF2 for 135-1E1 T-cell recognition (FIG. 7E).
Using systemic and multiple approaches, 8 cancer neoantigens were identified in 135 mel and 7 neoantigens in 136 mel. To understand the potential mechanisms that restrain the number of neoantigens that could induce T cell response, it was asked whether these neoantigens were equally recognized by T cells.
T-cell cloning and expansion were performed. Briefly, T-cell clones from 135TILs were generated by a limited dilution (0.3 cell/well) in 96-well plates. Allogeneic PBMCs from normal donors were irradiated (60 Gy) and then seeded as feeder cells (7×10^4/well) in TCM containing 35 ng/ml OKT3 (anti-hCD3 antibody) (R&D Systems) and 35 ng/ml anti-hCD28 antibody (R&D Systems). On day 1, recombinant IL-2 was added to the final concentration of 300 IU/ml. On day 5, half of the culture medium was replaced with fresh TCM containing recombinant IL-2, and then the medium was changed every other day or when the medium color turned yellow. On day 14, T-cell clones were harvested, counted, tested for tumor reactivity. Tumor reactive T-cell clones were further expanded.
(§1) 96-well tissue culture plates were coated with phosphate-buffered saline (PBS, GenDEPOT) containing 50 μg/ml poly-L-lysine (Millipore Sigma) at 37° C. 10 min later, the plates were rinsed twice with PBS. Tumor cells or 293-APCs were seeded at 5×10^4/well in the 96-well plate and cultured at 37° C., 5% CO2 for at least 4 h. For plasmid transfection, 250 ng of plasmid DNA were transfected into 293-APCs per well with 0.5 μl of Lipofectamine 2000 (Thermo Fisher Scientific) according to the manufacturer's instructions and incubated at 37° C., in 5% CO2 overnight. For peptide presentation, synthesized peptides (GeneScript) were added to each well at different final concentrations from 10^2 to 10^−4 μM and incubated at 37° C., 5% CO2. The cells transfected with plasmids or pulsed with peptides were washed with TCM twice, and then cocultured with T cells (1×10^5/well). After overnight culture, 50 μl of supernatant was collected for measuring cytokine release with an ELISA assay. […]

135TIL [1] = experiment: TCR β CDR3 repertoire analysis; set-up: species or system human; details: TCRβ CDR3 profiling
Description: To address this issue, PCDHB16 neoantigen-specific CD4^+ T cells were isolated by FACS sorting of PCDHB16-neoantigen T cells from freshly generated bulk T cells after stimulated PCDHB16 neoepitope peptide-pulsed 135EBV-B cells. Using the similar approach, MPG-specific CD8+ T cells were also purified from freshly generated bulk T cells after stimulated MPG neoepitope peptide-pulsed 135EBV-B cells. Genomic DNAs were isolated from the two purified neoantigen-specific T cell populations, as well as the parental bulk T cells, and used as templates for TCR β-chain CDR3 repertoire amplification. […] After the amplicons (from PCDHB16-, MPG-specific T cells and bulk 135TIL) were subjected to deep-sequenced via next-generation sequencing (reads>100,000 per sample), followed by bioinformatic analysis and TCR repertoire alignment. […] The relative TCR sequence frequencies that were identical to those in PCDHB16-specific T cells and MPG-specific T cells were determined in total 135TIL cell population (FIG. 10F). […]
Cytokine Secretion Assay-Detection Kit (MACS Miltenyi Biotec) was used in cell-surface IFN-γ staining based on a commercial protocol. […] Finally cells were washed with cold buffer and ready for flow cytometric analysis. […]

135TIL [2] = experiment: Intracellular staining of IFN-γ after neoantigen peptide stimulation, 135TIL; assay type: cell-based, human
Protocol: T cells were stimulated by various in vitro methods, such as tumor cells, peptides or DNA encoding neoantigens, etc. and induced to release cytokines. Stimulated T cells were resuspended in 100 μl of Cytofix/Cytoperm solution (BD Biosciences) per well for microwell plates (or 250 μl for tubes) and incubated for 20 min at 4° C. for cell fixation. Fixed cells were permeabilized by washing twice in 1× Perm/Wash buffer (BD Biosciences). Then the fixed/permeabilized cells were thoroughly resuspended in 50 μl of 1× Perm/Wash buffer containing 1 μl of phycoerythrin (PE)-conjugated IFN-γ antibody (Thermo Fisher Scientific) and incubate at 4° C. for 30 min in the dark. After that the cells were washed twice with 1× Perm/Wash buffer and ready for flow cytometric analysis.

135TIL [3] = experiment: IFN-γ ELISA with bulk 135TIL (IVT-RNA electroporated 135EBV-B cells; peptide titration and truncation); assay type: cell-based, human; details: serially diluted peptides
Protocol: Due to low transfection efficiency of EBV-B cells, in vitro transcribed (IVT) RNA of 24 TMGs were generated and then electroporated them into 135EBV-B cells, followed by adding 135TIL cells for antigen recognition based on cytokine release assay.
as §1, with “(1×10^5/well).” for “(1×10^5/well). After overnight culture, 50 μl of supernatant was collected for measuring cytokine release with an ELISA assay.”
96-well microplate (Greiner Bio-one) was coated with 50 μl of PBS containing anti-human IFN-γ (Thermo Fisher Scientific, primary antibody, 1 μg/ml) per well and incubated at 4° C. overnight. […] The plate was read at OD450 nm. The concentration of IFN-γ was calculated by standard reading. […]

Row | Sequence | percentage of CD8^+ tumor-reactive T-cell clones recognizing the neoantigen (T-cell clones of 135TIL; 40 clones) [%] | number of CD8^+ tumor-reactive T-cell clones recognizing the neoantigen (T-cell clones of 135TIL; of 40 clones) | neoantigen-specific TCRs in the total 135TIL TCRs (135TIL [1]) [%] | share of tumor-reactive CD8^+ T cells specific for the neoantigen (135TIL [2]) [%] | CD8^+ T cells recognizing the neoantigen in the total T cell population (135TIL [2]; intracellular cytokine staining) [%] | recognition of titrated peptides by 135TIL (IFN-γ ELISA) (135TIL [3]) | recognition of antigen peptides by specific T-cell clones (T-cell clones of 135TIL; peptide titration, 135-1C1 (ADIPOR2), 135-1E1 (LAGE1b))
1 | YGMYFCMNISSQEDGACVLLRALEP [MPG, immunodominant MHC-I neoantigen of patient #135] | 67.5 | 27 | 25.5 | 65 | 12.3 | – | –
2 | MKLTSLMCNPVKSPFFGCVCGHVPISMCVSTCSSLPTASCALDLTVLAENSHQVGA [ADIPOR2, 56 aa reading frame in the 3′UTR of gene ADIPOR2] | – | – | – | – | – | little or no activity | strongly recognized
